The source of these data is US8664162B2, “Method for application of pesticides and plant growth regulators and nutrients to plants” (ArborSystems, priority 2009, dated 2014).

Data set [1] in a line: in vivo. The conditions noted are these: aspen tree. How it is done:
The tree had not previously been treated with any pesticide. About 4 to 5 ml of a formulation containing 5% imidacloprid and 95% tetrahydrofurfuryl alcohol (THFA) was poured onto the soil around the base and then watered in.
(§1) Leaves obtained from the treated and untreated trees 100 days after treatment were analyzed for imidacloprid by enzyme-linked immunosorbent assay (ELISA). Briefly, leaves were dried completely and leaf blade material was separated from stems and petioles. The leaf blade material was ground to a fine powder, and about 5 grams of the material placed in a vial. A measured amount of methanol was added so that the leaf material was covered and 1 to 2 ml of methanol was beyond the leaf material, for a total of 10 to 20 ml of methanol. The vials were mixed well at least twice a day for at least 48 hours. After at least 48 hours, 10 microliters of the liquid was transferred to a smaller vial, and 1.5 ml distilled water added, and the vials were mixed well. ELISA was performed using the Envirologix™ QuantiPlate Kit for Imidacloprid (EP 006).

The nature of data set [2]: in vivo. The conditions noted are these: phylodendrons. The protocol:
as §1
Five ml of a formulation of 5% imidacloprid and 95% THFA was applied to the soil of each of two 4-inch diameter pots of phylodendrons. An equal number of control plants received no insecticide treatment. All of the plants were watered and kept in the same area. On the tenth day after treatment, leaves from treated and control plants were collected and tested for imidacloprid by ELISA as described in Example 1.

In turn, `O=[N+]([O-])NC1=NCCN1Cc1ccc(Cl)nc1` [imidacloprid] showed a concentration at 100 days in data set [1] of 17000 ng/g. Also, in data set [2], the “Time for absorption by the roots and translocation to the leaves” value is recorded as not above 10 days; the concentration at 10 days was 72000 ng/g.
